Reference: paper PMC9516332 (Frontiers in Oncology, 2022)
Like-named read-outs stand apart in the source and are kept apart here.

Legend:
[1] = biological target: panel of 255 wild-type kinases (Homo sapiens, UniProt Q9Y6M4); test: Kinase panel profiling at 1 µmol/L (MSA or IMAP), percentage inhibition; type: biochemical; conditions: kinase CK1γ3; 1 µmol/L single concentration; read-out: %-inhibition at 1 µmol/L, CK1γ3
[2] = biological target: panel of 255 wild-type kinases (Homo sapiens, UniProt P29317); test: as above; type: biochemical; conditions: kinase EPHA2; 1 µmol/L single concentration; read-out: %-inhibition at 1 µmol/L, EPHA2
AP-1060 (ETV6-NTRK3) = test: Cell viability assay; conditions: read-out: IC50 in cell proliferation assay
134 cancer cell lines = test: Cell viability assay (ATPlite, 72 hours), IC50 on cancer cell line panel

SMILES: CN1CCN(c2ccc(C(=O)Nc3n[nH]c4ccc(Cc5cc(F)cc(F)c5)cc34)c(NC3CCOCC3)c2)CC1 [entrectinib]
- inhibition at 1 µM [1]: 0.879%
- inhibition at 1 µM [2]: 37%
- IC50 (AP-1060 (ETV6-NTRK3)): 0.035 µM
- IC50 (134 cancer cell lines; HEC-6, read-out: IC50 in cell proliferation assay, HEC-6 cell line (EGFR p.A289V)): 6.83 µM
- IC50 (134 cancer cell lines; Homo sapiens, 769-P, read-out: IC50 in cell proliferation assay, cell line 769-P): 6.69 µM
- IC50 (134 cancer cell lines; Homo sapiens, 786-0, read-out: IC50 in cell proliferation assay, cell line 786-O): 5.12 µM
- IC50 (134 cancer cell lines; Homo sapiens, A 172, read-out: IC50 in cell proliferation assay, cell line A-172): 4.96 µM
- IC50 (134 cancer cell lines; Homo sapiens, A204, read-out: IC50 in cell proliferation assay, cell line A-204): 5.98 µM
- IC50 (134 cancer cell lines; Homo sapiens, A498, read-out: IC50 in cell proliferation assay, cell line A-498): 7.97 µM
- IC50 (134 cancer cell lines; Homo sapiens, A549, read-out: IC50 in cell proliferation assay, cell line A-549): 8.78 µM
- IC50 (134 cancer cell lines; Homo sapiens, A704, read-out: IC50 in cell proliferation assay, cell line A-704): 6.87 µM
- IC50 (134 cancer cell lines; Homo sapiens, A-375, read-out: IC50 in cell proliferation assay, cell line A-375 (BRAF p.V600E)): 5.84 µM
- IC50 (134 cancer cell lines; Homo sapiens, A-427, read-out: IC50 in cell proliferation assay, cell line A-427): 3.49 µM
- IC50 (134 cancer cell lines; Homo sapiens, ACHN, read-out: IC50 in cell proliferation assay, cell line ACHN): 5.79 µM
- IC50 (134 cancer cell lines; Homo sapiens, AN3-CA, read-out: IC50 in cell proliferation assay, cell line AN3-CA (FGFR2 p.N549K)): 3.78 µM
- IC50 (134 cancer cell lines; Homo sapiens, ASPC1, read-out: IC50 in cell proliferation assay, cell line AsPC-1): 7.99 µM
- IC50 (134 cancer cell lines; Homo sapiens, AU565, read-out: IC50 in cell proliferation assay, cell line AU565 (ERBB2 amplification)): 8.63 µM
- IC50 (134 cancer cell lines; Homo sapiens, BT-20, read-out: IC50 in cell proliferation assay, cell line BT-20): 10.7 µM
- IC50 (134 cancer cell lines; Homo sapiens, BT-474, read-out: IC50 in cell proliferation assay, cell line BT-474 (ERBB2 amplification)): 6.15 µM
- IC50 (134 cancer cell lines; Homo sapiens, BT-549, read-out: IC50 in cell proliferation assay, cell line BT-549): 7.41 µM
- IC50 (134 cancer cell lines; Homo sapiens, BXPC-3, read-out: IC50 in cell proliferation assay, cell line BxPC-3): 6.09 µM
- IC50 (134 cancer cell lines; Homo sapiens, C-33-A, read-out: IC50 in cell proliferation assay, cell line C-33 A): 5.23 µM
- IC50 (134 cancer cell lines; Homo sapiens, CAL-27, read-out: IC50 in cell proliferation assay, cell line CAL-27): 5.15 µM
- IC50 (134 cancer cell lines; Homo sapiens, CCF-STTG1, read-out: IC50 in cell proliferation assay, cell line CCF-STTG1): 10.7 µM
- IC50 (134 cancer cell lines; Homo sapiens, CCRF-CEM, read-out: IC50 in cell proliferation assay, cell line CCRF-CEM): 9.03 µM
- IC50 (134 cancer cell lines; Homo sapiens, COLO 205, read-out: IC50 in cell proliferation assay, cell line COLO 205 (BRAF p.V600E)): 7.72 µM
- IC50 (134 cancer cell lines; Homo sapiens, COLO-829, read-out: IC50 in cell proliferation assay, cell line COLO 829 (BRAF p.V600E)): 8.95 µM
- IC50 (134 cancer cell lines; Homo sapiens, DLD-1, read-out: IC50 in cell proliferation assay, cell line DLD-1): 10.5 µM
- IC50 (134 cancer cell lines; Homo sapiens, DU-4475, read-out: IC50 in cell proliferation assay, cell line DU4475 (BRAF p.V600E)): 8.22 µM
- IC50 (134 cancer cell lines; Homo sapiens, Daoy, read-out: IC50 in cell proliferation assay, cell line Daoy): 5.1 µM
- IC50 (134 cancer cell lines; Homo sapiens, DoTc2-4510, read-out: IC50 in cell proliferation assay, cell line DoTc2 4510): 4.69 µM
- IC50 (134 cancer cell lines; Homo sapiens, EOL1, read-out: IC50 in cell proliferation assay, cell line EoL-1 (FIP1L1-PDGFRA)): 0.512 µM
- IC50 (134 cancer cell lines; Homo sapiens, FaDu, read-out: IC50 in cell proliferation assay, cell line FaDu): 5.64 µM
- IC50 (134 cancer cell lines; Homo sapiens, G-361, read-out: IC50 in cell proliferation assay, cell line G-361 (BRAF p.V600E)): 4.67 µM
- IC50 (134 cancer cell lines; Homo sapiens, HCC827, read-out: IC50 in cell proliferation assay, cell line HCC827 (EGFR exon19del)): 2.98 µM
- IC50 (134 cancer cell lines; Homo sapiens, HCC4006, read-out: IC50 in cell proliferation assay, cell line HCC4006 (EGFR exon19del)): 4.96 µM
- IC50 (134 cancer cell lines; Homo sapiens, HCT-15, read-out: IC50 in cell proliferation assay, cell line HCT 15): 7.64 µM
- IC50 (134 cancer cell lines; Homo sapiens, HCT-116, read-out: IC50 in cell proliferation assay, cell line HCT 116): 4.66 µM
- IC50 (134 cancer cell lines; Homo sapiens, HEC-1, read-out: IC50 in cell proliferation assay, HEC-1 cell line): 3.73 µM
- IC50 (134 cancer cell lines; Homo sapiens, HEC-1B, read-out: IC50 in cell proliferation assay, HEC-1-B cell line (EGFR p.A864V)): 2.24 µM
- IC50 (134 cancer cell lines; Homo sapiens, HL-60, read-out: IC50 in cell proliferation assay, HL-60 cell line): 5.68 µM
- IC50 (134 cancer cell lines; Homo sapiens, HT, read-out: IC50 in cell proliferation assay, HT cell line): 12 µM
- IC50 (134 cancer cell lines; Homo sapiens, HT-1080, read-out: IC50 in cell proliferation assay, HT-1080 cell line): 7.36 µM
- IC50 (134 cancer cell lines; Homo sapiens, Hs746T, read-out: IC50 in cell proliferation assay, Hs 746.T cell line (MET exon14skip + amplification)): 10.9 µM
- IC50 (134 cancer cell lines; Homo sapiens, Hs-578T, read-out: IC50 in cell proliferation assay, Hs 578T cell line): 7.05 µM
- IC50 (134 cancer cell lines; Homo sapiens, HuTu80, read-out: IC50 in cell proliferation assay, HuTu 80 cell line): 3.57 µM
- IC50 (134 cancer cell lines; Homo sapiens, J82, read-out: IC50 in cell proliferation assay, J82 cell line): 7.16 µM
- IC50 (134 cancer cell lines; Homo sapiens, Jurkat E6.1, read-out: IC50 in cell proliferation assay, Jurkat E6.1 cell line): 8.24 µM
- IC50 (134 cancer cell lines; Homo sapiens, K562, read-out: IC50 in cell proliferation assay, K-562 cell line): 5.82 µM
- IC50 (134 cancer cell lines; Homo sapiens, KATO III, read-out: IC50 in cell proliferation assay, KATO III cell line (FGFR2 amplification)): 1.43 µM
- IC50 (134 cancer cell lines; Homo sapiens, KG-1, read-out: IC50 in cell proliferation assay, KG-1 cell line (FGFR1OP2-FGFR1)): 1.53 µM
- IC50 (134 cancer cell lines; Homo sapiens, KLE, read-out: IC50 in cell proliferation assay, KLE cell line): 4.33 µM
- IC50 (134 cancer cell lines; Homo sapiens, KMS-11, read-out: IC50 in cell proliferation assay, KMS-11 cell line (FGFR3 p.Y373C)): 4.82 µM
- IC50 (134 cancer cell lines; Homo sapiens, KU812, read-out: IC50 in cell proliferation assay, Ku812 cell line): 4.72 µM
- IC50 (134 cancer cell lines; Homo sapiens, Kasumi 1, read-out: IC50 in cell proliferation assay, Kasumi-1 cell line (KIT p.N822K)): 3.68 µM
- IC50 (134 cancer cell lines; Homo sapiens, LC-2-ad, read-out: IC50 in cell proliferation assay, LC-2/ad cell line (CCDC6-RET)): 1.81 µM
- IC50 (134 cancer cell lines; Homo sapiens, LNCaP-Clone-FGC, read-out: IC50 in cell proliferation assay, LNCaP clone FGC cell line): 10.9 µM
- IC50 (134 cancer cell lines; Homo sapiens, LS174T, read-out: IC50 in cell proliferation assay, LS174T cell line): 4.9 µM
- IC50 (134 cancer cell lines; Homo sapiens, LS-411N, read-out: IC50 in cell proliferation assay, LS411N cell line (BRAF p.V600E)): 9.55 µM
- IC50 (134 cancer cell lines; Homo sapiens, LoVo, read-out: IC50 in cell proliferation assay, LoVo cell line): 9.52 µM
- IC50 (134 cancer cell lines; Homo sapiens, MCF7, read-out: IC50 in cell proliferation assay, MCF-7 cell line): 3.83 µM
- IC50 (134 cancer cell lines; Homo sapiens, MDA-MB-231, read-out: IC50 in cell proliferation assay, MDA-MB-231 cell line): 4.59 µM
- IC50 (134 cancer cell lines; Homo sapiens, MDA-MB-453, read-out: IC50 in cell proliferation assay, MDA-MB-453 cell line): 11.5 µM
- IC50 (134 cancer cell lines; Homo sapiens, MDA-MB-468, read-out: IC50 in cell proliferation assay, MDA-MB-468 cell line): 11 µM
- IC50 (134 cancer cell lines; Homo sapiens, MG-63, read-out: IC50 in cell proliferation assay, MG-63 cell line): 3.8 µM
- IC50 (134 cancer cell lines; Homo sapiens, MIA PaCa-2, read-out: IC50 in cell proliferation assay, MIA PaCa-2 cell line): 5.16 µM
- IC50 (134 cancer cell lines; Homo sapiens, MKN-45, read-out: IC50 in cell proliferation assay, MKN45 cell line (MET amplification)): 11.8 µM
